What was measured:
Format in all cases: in vivo
[1] = system: Amaranthus retroflexus (AMARE); assay: Herbicidal pre-emergence action, AMARE
From the text: (§1) Seeds of mono- and dicotyledonous weed plants were sown in plastic pots (double sowings with one species of mono- and one species of dicotyledonous weed plants per pot), in sandy loam, and covered with soil. The compounds according to the invention, formulated in the form of wettable powders (WP) or as emulsifiable concentrates (EC), were applied to the surface of the covering soil as an aqueous suspension or as an emulsion, with the addition of 0.5% of an additive, at an application rate of 600 litres of water per hectare (converted). Following treatment, the pots were placed in a greenhouse and kept under optimum growth conditions for the test plants. The visual grading of the damage to the test plants is carried out after ca. 3 weeks in comparison to untreated controls (herbicidal effect in percent (%): 100% effect=plants have died, 0% effect=as control plants). Seeds of mono- and dicotyledonous weed plants were sown in plastic pots (double sowings with one species of mono- and one species of dicotyledonous weed plants per pot), in sandy loam, and covered with soil. The compounds according to the invention, formulated in the form of wettable powders (WP) or as emulsifiable concentrates (EC), were applied to the surface of the covering soil as an aqueous suspension or as an emulsion, with the addition of 0.5% of an additive, at an application rate of 600 litres of water per hectare (converted). Following treatment, the pots were placed in a greenhouse and kept under optimum growth conditions for the test plants. The visual grading of the damage to the test plants is carried out after ca. 3 weeks in comparison to untreated controls (herbicidal effect in percent (%): 100% effect=plants have died, 0% effect=as control plants).

[2] = system: Echinochloa crus-galli (ECHCG); assay: Herbicidal pre-emergence action, ECHCG
From the text: as §1

Kochia scoparia (KCHSC) = assay: Herbicidal pre-emergence action, KCHSC
From the text: as §1

Lolium rigidum (LOLRI) [3] = assay: Herbicidal pre-emergence action, LOLRI
From the text: as §1

[4] = system: Matricaria inodora (MATIN); assay: Herbicidal pre-emergence action, MATIN
From the text: as §1

Stellaria media (STEME) [5] = assay: Herbicidal pre-emergence action, STEME
From the text: as §1

Veronica persica (VERPE) [6] = assay: Herbicidal pre-emergence action, VERPE
From the text: as §1

[7] = system: Amaranthus retroflexus (AMARE); assay: Herbicidal post-emergence action, AMARE
From the text: (§2) Seeds of mono- and dicotyledonous weed plants were sown in plastic pots (double sowings with one species of mono- and one species of dicotyledonous weed plants per pot), in sandy loam, covered with soil and grown under controlled growth conditions. 2 to 3 weeks after sowing, the test plants were sprayed in the single-leaf stage. The compounds according to the invention, formulated in the form of wettable powders (WP) or as emulsifiable concentrates (EC), were sprayed onto the green plant parts as an aqueous suspension or as an emulsion, with the addition of 0.5% of an additive, at an application rate of 600 litres of water per hectare (converted). The test plants were placed in the greenhouse for ca. 3 weeks under optimum growth conditions, and then the effect of the preparations is assessed visually in comparison with untreated controls (herbicidal effect in percent (%): 100% effect=plants have died, 0% effect=as control plants). […]

[8] = system: Echinochloa crus-galli (ECHCG); assay: Herbicidal post-emergence action, ECHCG
From the text: as §2

Lolium rigidum (LOLRI) [9] = assay: Herbicidal post-emergence action, LOLRI
From the text: as §2

[10] = system: Matricaria inodora (MATIN); assay: Herbicidal post-emergence action, MATIN
From the text: as §2

Stellaria media (STEME) [11] = assay: Herbicidal post-emergence action, STEME
From the text: as §2

Veronica persica (VERPE) [12] = assay: Herbicidal post-emergence action, VERPE
From the text: as §2

[13] = 1280 g/ha, visual grading after ca. 3 weeks vs untreated controls (Table A11)
[14] = 1280 g/ha, visual grading after ca. 3 weeks vs untreated controls (Table A3)
[15] = 1280 g/ha, visual grading after ca. 3 weeks vs untreated controls (Table A4)
[16] = 1280 g/ha, visual grading after ca. 3 weeks vs untreated controls (Table A5)
[17] = 320 g/ha, visual grading after ca. 3 weeks vs untreated controls (Table C3)
[18] = 1280 g/ha, visual grading after ca. 3 weeks vs untreated controls (Table A6)
[19] = 320 g/ha, visual grading after ca. 3 weeks vs untreated controls (Table C6)
[20] = 1280 g/ha, visual grading after ca. 3 weeks vs untreated controls (Table A9)
[21] = 1280 g/ha, visual grading after ca. 3 weeks vs untreated controls (Table A10)
[22] = 320 g/ha, assessed visually after ca. 3 weeks vs untreated controls (Table D6)
[23] = 1280 g/ha, assessed visually after ca. 3 weeks vs untreated controls (Table B11)
[24] = 1280 g/ha, assessed visually after ca. 3 weeks vs untreated controls (Table B3)
[25] = 1280 g/ha, assessed visually after ca. 3 weeks vs untreated controls (Table B5)
[26] = 320 g/ha, assessed visually after ca. 3 weeks vs untreated controls (Table D2)
[27] = 1280 g/ha, assessed visually after ca. 3 weeks vs untreated controls (Table B6)
[28] = 320 g/ha, assessed visually after ca. 3 weeks vs untreated controls (Table D4)
[29] = 1280 g/ha, assessed visually after ca. 3 weeks vs untreated controls (Table B9)
[30] = 320 g/ha, assessed visually after ca. 3 weeks vs untreated controls (Table D5)
[31] = 1280 g/ha, assessed visually after ca. 3 weeks vs untreated controls (Table B10)
[32] = 320 g/ha, visual grading after ca. 3 weeks vs untreated controls (Table C8)
[33] = 320 g/ha, visual grading after ca. 3 weeks vs untreated controls (Table C1)
[34] = 320 g/ha, visual grading after ca. 3 weeks vs untreated controls (Table C2)
[35] = 320 g/ha, visual grading after ca. 3 weeks vs untreated controls (Table C7)

Structure (SMILES): O=C(Nc1nc(Cl)ns1)c1c(C2CC2)ccnc1Cl [Example I-013]
- herbicidal effect in percent, AMARE [1, 13]: 90%
- herbicidal effect in percent, ECHCG [2, 14]: 90%
- herbicidal effect in percent, KCHSC (Kochia scoparia (KCHSC); [15]): 90%
- herbicidal effect in percent, LOLRI (Lolium rigidum (LOLRI) [3]; [16]): 90%
- herbicidal effect in percent, MATIN [4, 17]: 90%
- herbicidal effect in percent, MATIN [4, 18]: 100%
- herbicidal effect in percent, STEME (Stellaria media (STEME) [5]; [19]): 90%
- herbicidal effect in percent, STEME (Stellaria media (STEME) [5]; [20]): 100%
- herbicidal effect in percent, VERPE (Veronica persica (VERPE) [6]; [21]): 90%
- herbicidal effect in percent, AMARE [7, 22]: 90%
- herbicidal effect in percent, AMARE [7, 23]: 90%
- herbicidal effect in percent, ECHCG ([8]; 320 g/ha, assessed visually after ca. 3 weeks vs untreated controls (Table D7)): 90%
- herbicidal effect in percent, ECHCG [8, 24]: 90%
- herbicidal effect in percent, LOLRI (Lolium rigidum (LOLRI) [9]; [25]): 90%
- herbicidal effect in percent, MATIN [10, 26]: 90%
- herbicidal effect in percent, MATIN [10, 27]: 90%
- herbicidal effect in percent, STEME (Stellaria media (STEME) [11]; [28]): 90%
- herbicidal effect in percent, STEME (Stellaria media (STEME) [11]; [29]): 90%
- herbicidal effect in percent, VERPE (Veronica persica (VERPE) [12]; [30]): 90%
- herbicidal effect in percent, VERPE (Veronica persica (VERPE) [12]; [31]): 90%

Structure (SMILES): O=C(Nc1ncns1)c1c(C2CC2)ccnc1F [Example I-005]
- herbicidal effect in percent, AMARE [1, 32]: 100%
- herbicidal effect in percent, AMARE [1, 13]: 100%
- herbicidal effect in percent, ECHCG ([2]; 320 g/ha, visual grading after ca. 3 weeks vs untreated controls (Table C9)): 90%
- herbicidal effect in percent, ECHCG [2, 14]: 90%
- herbicidal effect in percent, KCHSC (Kochia scoparia (KCHSC); [33]): 100%
- herbicidal effect in percent, KCHSC (Kochia scoparia (KCHSC); [15]): 100%
- herbicidal effect in percent, LOLRI (Lolium rigidum (LOLRI) [3]; [34]): 100%
- herbicidal effect in percent, LOLRI (Lolium rigidum (LOLRI) [3]; [16]): 100%
- herbicidal effect in percent, MATIN [4, 17]: 100%
- herbicidal effect in percent, MATIN [4, 18]: 100%
- herbicidal effect in percent, STEME (Stellaria media (STEME) [5]; [19]): 100%
- herbicidal effect in percent, STEME (Stellaria media (STEME) [5]; [20]): 100%
- herbicidal effect in percent, VERPE (Veronica persica (VERPE) [6]; [35]): 90%
- herbicidal effect in percent, VERPE (Veronica persica (VERPE) [6]; [21]): 100%
- herbicidal effect in percent, AMARE [7, 22]: 100%
- herbicidal effect in percent, AMARE [7, 23]: 100%
- herbicidal effect in percent, ECHCG [8, 24]: 90%
- herbicidal effect in percent, LOLRI (Lolium rigidum (LOLRI) [9]; 320 g/ha, assessed visually after ca. 3 weeks vs untreated controls (Table D9)): 100%
- herbicidal effect in percent, LOLRI (Lolium rigidum (LOLRI) [9]; [25]): 100%
- herbicidal effect in percent, MATIN [10, 26]: 100%
- herbicidal effect in percent, MATIN [10, 27]: 100%
- herbicidal effect in percent, STEME (Stellaria media (STEME) [11]; [28]): 100%
- herbicidal effect in percent, STEME (Stellaria media (STEME) [11]; [29]): 100%
- herbicidal effect in percent, VERPE (Veronica persica (VERPE) [12]; [30]): 100%
- herbicidal effect in percent, VERPE (Veronica persica (VERPE) [12]; [31]): 100%

Structure (SMILES): O=C(Nc1ncns1)c1c(C2CC2)ccnc1Cl [Example I-003, 2-chloro-4-cyclopropyl-N-(1,2,4-thiadiazol-5-yl)pyridine-3-carboxamide]
- herbicidal effect in percent, AMARE [1, 32]: 90%
- herbicidal effect in percent, AMARE [1, 13]: 100%
- herbicidal effect in percent, ECHCG [2, 14]: 90%
- herbicidal effect in percent, KCHSC (Kochia scoparia (KCHSC); [33]): 90%
- herbicidal effect in percent, KCHSC (Kochia scoparia (KCHSC); [15]): 100%
- herbicidal effect in percent, LOLRI (Lolium rigidum (LOLRI) [3]; [34]): 90%
- herbicidal effect in percent, LOLRI (Lolium rigidum (LOLRI) [3]; [16]): 90%
- herbicidal effect in percent, MATIN [4, 17]: 100%
- herbicidal effect in percent, MATIN [4, 18]: 100%
- herbicidal effect in percent, STEME (Stellaria media (STEME) [5]; [19]): 100%
- herbicidal effect in percent, STEME (Stellaria media (STEME) [5]; [20]): 100%
- herbicidal effect in percent, VERPE (Veronica persica (VERPE) [6]; [35]): 90%
- herbicidal effect in percent, VERPE (Veronica persica (VERPE) [6]; [21]): 90%
- herbicidal effect in percent, AMARE [7, 22]: 100%
- herbicidal effect in percent, AMARE [7, 23]: 100%
- herbicidal effect in percent, ECHCG [8, 24]: 90%
- herbicidal effect in percent, LOLRI (Lolium rigidum (LOLRI) [9]; [25]): 90%
- herbicidal effect in percent, MATIN [10, 26]: 90%
- herbicidal effect in percent, MATIN [10, 27]: 100%
- herbicidal effect in percent, STEME (Stellaria media (STEME) [11]; [28]): 100%
- herbicidal effect in percent, STEME (Stellaria media (STEME) [11]; [29]): 100%
- herbicidal effect in percent, VERPE (Veronica persica (VERPE) [12]; [30]): 90%
- herbicidal effect in percent, VERPE (Veronica persica (VERPE) [12]; [31]): 100%
